According to patent publication US20130310379A1, “MODULATORS OF METHYL MODIFYING ENZYMES, COMPOSITIONS AND USES THEREOF” (CONSTELLATION PHARMACEUTICALS, priority 2010, published 2013):
pIC50: −log10 of the molar value.

Molecular target: EZH2 (Homo sapiens, UniProt Q15910)
Test: EZH2 assay: rPRC2 with biotinylated oligonucleosome substrates and 3H SAM, FlashPlate scintillation counting, IC50
Assay type: biochemical
Settings: rPRC2, biotinylated oligonucleosome substrates, 3H SAM; read-out: EZH2 IC50
Method in brief: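 rPRC2 (2 nM EZH2) pre-incubated 20 min with compound (80 to 0.16 uM, ten 2-fold steps), then 60 min reaction with 0.2 uM 3H SAM, 0.2 uM biotinylated oligonucleosomes, 3.6 uM H3K27me3 peptide in Tris pH 8.5. SAH/EDTA quench; 4-parameter IC50 fit.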

Chain of EZH2 (Q15910 whole entry): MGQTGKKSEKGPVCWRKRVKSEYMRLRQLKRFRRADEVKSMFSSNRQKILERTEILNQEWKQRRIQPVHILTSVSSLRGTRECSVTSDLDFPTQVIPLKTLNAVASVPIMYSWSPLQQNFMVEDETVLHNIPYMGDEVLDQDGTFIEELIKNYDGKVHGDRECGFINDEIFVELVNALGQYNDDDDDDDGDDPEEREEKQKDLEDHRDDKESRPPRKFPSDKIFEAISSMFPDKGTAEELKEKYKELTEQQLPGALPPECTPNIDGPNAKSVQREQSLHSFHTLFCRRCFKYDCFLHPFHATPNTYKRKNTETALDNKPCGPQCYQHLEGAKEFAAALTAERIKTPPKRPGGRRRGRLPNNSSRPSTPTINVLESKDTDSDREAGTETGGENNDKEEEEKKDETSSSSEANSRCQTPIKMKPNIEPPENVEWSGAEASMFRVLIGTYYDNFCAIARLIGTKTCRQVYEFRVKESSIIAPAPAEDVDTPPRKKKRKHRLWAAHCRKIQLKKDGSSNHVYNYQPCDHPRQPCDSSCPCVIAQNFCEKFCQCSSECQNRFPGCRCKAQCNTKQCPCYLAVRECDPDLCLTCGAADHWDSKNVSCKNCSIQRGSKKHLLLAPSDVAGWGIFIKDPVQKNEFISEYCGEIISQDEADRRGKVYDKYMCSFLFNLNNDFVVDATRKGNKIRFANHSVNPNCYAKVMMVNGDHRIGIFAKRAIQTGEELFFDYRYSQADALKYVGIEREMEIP
Chain of EZH2 (O75530 whole entry partner): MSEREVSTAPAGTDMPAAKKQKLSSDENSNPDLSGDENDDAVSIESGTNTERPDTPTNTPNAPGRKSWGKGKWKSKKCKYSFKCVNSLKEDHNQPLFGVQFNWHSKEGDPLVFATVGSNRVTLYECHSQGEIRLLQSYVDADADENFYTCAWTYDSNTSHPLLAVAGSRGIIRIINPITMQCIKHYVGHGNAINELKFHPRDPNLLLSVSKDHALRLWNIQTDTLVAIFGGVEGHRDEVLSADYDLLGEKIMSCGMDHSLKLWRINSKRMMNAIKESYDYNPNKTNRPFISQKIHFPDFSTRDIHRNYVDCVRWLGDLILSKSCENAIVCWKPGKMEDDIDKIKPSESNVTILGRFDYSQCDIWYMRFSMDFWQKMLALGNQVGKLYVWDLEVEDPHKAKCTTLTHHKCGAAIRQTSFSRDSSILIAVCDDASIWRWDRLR
Chain of EZH2 (Q15022 whole entry partner): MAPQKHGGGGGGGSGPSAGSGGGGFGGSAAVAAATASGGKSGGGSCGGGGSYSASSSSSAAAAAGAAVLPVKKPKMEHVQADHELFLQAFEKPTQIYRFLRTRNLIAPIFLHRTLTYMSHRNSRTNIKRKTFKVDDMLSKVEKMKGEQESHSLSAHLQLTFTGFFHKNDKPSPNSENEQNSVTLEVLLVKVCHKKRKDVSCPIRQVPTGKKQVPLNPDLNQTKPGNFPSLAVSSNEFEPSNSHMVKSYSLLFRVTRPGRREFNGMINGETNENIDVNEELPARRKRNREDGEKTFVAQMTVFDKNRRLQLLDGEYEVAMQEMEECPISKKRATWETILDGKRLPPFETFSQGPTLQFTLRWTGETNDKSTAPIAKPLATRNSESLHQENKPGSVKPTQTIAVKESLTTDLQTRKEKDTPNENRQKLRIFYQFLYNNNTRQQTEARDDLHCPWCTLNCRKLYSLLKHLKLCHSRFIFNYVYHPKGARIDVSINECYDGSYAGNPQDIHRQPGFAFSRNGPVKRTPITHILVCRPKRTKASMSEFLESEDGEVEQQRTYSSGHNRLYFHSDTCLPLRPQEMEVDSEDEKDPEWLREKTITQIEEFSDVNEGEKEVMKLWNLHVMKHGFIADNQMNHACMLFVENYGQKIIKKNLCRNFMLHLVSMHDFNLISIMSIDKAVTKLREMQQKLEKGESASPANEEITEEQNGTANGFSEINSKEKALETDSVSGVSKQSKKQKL

Compound	pIC50
Cc1cncc(-c2cccc(OCc3ccc(C(=O)NC4CC(C)(C)NC(C)(C)C4)cc3)c2)c1 [Compound I-13, 4-((3-(5-methylpyridin-3-yl)phenoxy)methyl)-N-(2,2,6,6-tetramethylpiperidin-4-yl)benzamide]	4.70 to 5.30
CCOC(=O)c1cccc(Oc2ccc(C(=O)NC3CC(C)(C)NC(C)(C)C3)cc2)c1 [Compound I-34]	4.10 to 4.70
CC1(C)CC(NC(=O)c2ccc(Oc3cccc(OCC(N)=O)c3C#N)c(Cl)c2)CC(C)(C)N1 [Compound I-487]	> 5.30
COc1ccc(Oc2ccc(C(=O)NC3CC(C)(C)NC(C)(C)C3)cc2)c(C#N)c1 [Compound I-177]	< 4.10
CC1(C)CC(NC(=O)c2ccc(Oc3ccccc3C#N)cc2Cl)CC(C)(C)N1 [Compound I-174]	4.10 to 4.70
CCc1cccc(Oc2ccc(C(=O)NC3CC(C)(C)NC(C)(C)C3)cc2Cl)c1C#N [Compound I-310]	> 5.30
COc1cc(Oc2ccccc2)ccc1C(=O)NC1CC(C)(C)NC(C)(C)C1 [Compound I-204]	< 4.10
CN(Cc1ccccc1)C(=O)c1ccc(Oc2ccccc2)cc1 [Compound I-133]	< 4.10
CC1(C)CC(NC(=O)c2ccc(Oc3ccc(O)cc3)cc2)CC(C)(C)N1 [Compound I-25]	4.10 to 4.70
CC1(C)CC(NC(=O)c2ccc3ccccc3c2)CC(C)(C)N1 [Compound I-137]	< 4.10
COc1cc(C(=O)NC2CC(C)(C)NC(C)(C)C2)ccc1COc1cccc(Br)c1 [Compound I-31]	4.10 to 4.70
CC1(C)CC(NC(=O)c2ccc(Oc3cccc(-c4ccc(C(N)=O)nc4)c3C#N)c(Cl)c2)CC(C)(C)N1 [Compound I-527]	> 5.30
CC1(C)CC(NC(=O)c2ccc(COc3cccc(-c4ccc(N)cc4)c3)cc2)CC(C)(C)N1 [Compound I-155]	4.10 to 4.70
COc1ccc(-c2cccc(Oc3ccc(C(=O)NC4CC(C)(C)NC(C)(C)C4)cc3Cl)c2C#N)cn1 [Compound I-366]	> 5.30
CC1(C)CC(NC(=O)c2ccc(Oc3ccccc3OCc3ccccn3)cc2)CC(C)(C)N1 [Compound I-231]	4.70 to 5.30
CC1(C)CC(NC(=O)c2ccc(Oc3ccccc3C#N)c(-c3ccsc3)c2)CC(C)(C)N1 [Compound I-212]	> 5.30
CC1(C)CC(NC(=O)c2ccc(Oc3ccccc3CC#N)cc2)CC(C)(C)N1 [Compound I-305]	4.10 to 4.70
Cc1ccncc1-c1ccccc1Oc1ccc(C(=O)NC2CC(C)(C)NC(C)(C)C2)cc1Cl [Compound I-297]	4.70 to 5.30
Cc1cccc(Oc2ccc(C(=O)NC3CC(C)(C)NC(C)(C)C3)cc2Cl)c1-c1ccncc1 [Compound I-383]	4.10 to 4.70
CC1(C)CC(NC(=O)c2ccc(OC3CNC3)c(Cl)c2)CC(C)(C)N1 [Compound I-392]	< 4.10
Cn1cc(-c2ccccc2Oc2ccc(C(=O)NC3CC(C)(C)NC(C)(C)C3)cc2Cl)nn1 [Compound I-363]	> 5.30
CC1(C)CC(NC(=O)c2ccc(Oc3ccccc3)c(F)c2)CC(C)(C)N1 [Compound I-148]	4.70 to 5.30
CC(C)NC(=O)c1ccc(Oc2ccccc2)cc1 [Compound I-96]	< 4.10
CC1(C)CC(NC(=O)c2ccc(COc3ccc(C#N)cc3)cc2)CC(C)(C)N1 [Compound I-67]	4.10 to 4.70
Cn1cc(-c2cccc(Oc3ccc(C(=O)NC4CC(C)(C)NC(C)(C)C4)cc3Cl)c2C#N)cn1 [Compound I-336]	> 5.30
CC1(C)CC(NC(=O)c2ccc(Oc3ccccc3-c3nn[nH]n3)c(Cl)c2)CC(C)(C)N1 [Compound I-313]	< 4.10
CC1(C)CC(NC(=O)c2ccc(Oc3ccncc3C#N)c(Cl)c2)CC(C)(C)N1 [Compound I-349]	4.70 to 5.30
COc1cc(C(=O)NC2CC(C)(C)NC(C)(C)C2)cc2c1OCCO2 [Compound I-471]	< 4.10
Cc1ccccc1Sc1ccc(C(=O)NC2CC(C)(C)NC(C)(C)C2)cc1Cl [Compound I-302]	4.10 to 4.70
CC1(C)CC(NC(=O)c2ccc(Oc3ccc(I)cn3)cc2)CC(C)(C)N1 [Compound I-68, 4-(5-Iodopyridin-2-yloxy)-N-(2,2,6,6-tetramethylpiperidin-4-yl)benzamide]	< 4.10
